{
  "source": "patent US20260115177A1",
  "about": "“MEDICINAL PRODUCTS AND METHODS FOR THE ALLEVIATION OF CANCER IMMUNOTHERA-PY-ASSOCIATED CYTOKINE RELEASE SYNDROME” (POOLBEG PHARMA (UK) LIMITED, priority 2023, published 2026)",
  "type_in_all_cases": "cell-based, human",
  "key": {"HUVEC endothelial cells [1]": {"system": "HUVEC endothelial cells", "experiment": "QPCR of VCAM1, ICAM1 and IL-6 in HUVEC cells treated with sCAR", "conditions": "24 hours", "procedure": "(§1) In like manner and also in Example 3 below, sCAR (or smCAR) is added to endothelial (HUVEC) cells, available from the American Type Culture Collection, and using an equivalent protocol to the treatment of THP-1 cells (but with individually optimised conditions, such as the concentration of sCAR used), following which IL-6 release and IL-8 release are observed. Pro-inflammatory cytokines IL-6 and IL-8 are measured using an enzyme-linked immunosorbent assay (ELISA) and IL-6, ICAM1 and VCAM1 are measured by quantitative PCR (QPCR, for which a kit is suitably obtainable from Thermo Fisher Scientific of Kingfisher Dr, Swindon SN3 5BZ, UK).\n(§2) sCAR (or smCAR), produced as described in Example 1 above, is added to a monoculture of HUVEC endothelial cells in the presence of UR-13870, Ralimetinib or Acumapimod at each of the concentrations shown in Table 2 above, at 37° C., 5% CO2 and a suitably humid environment for 24 hours."}, "HUVEC endothelial cells [2]": {"system": "HUVEC endothelial cells", "experiment": "IL-6 and IL-8 ELISA of HUVEC cells treated with sCART-mono supernatant", "conditions": "24 hr, concentrations of Table 2", "procedure": "(§3) With reference to FIG. 13 of the accompanying drawings, a co-culture (100) is established using a standard cell culture transwell dish, including a first compartment (101), containing CAR T cells and cancer cells (at a 1:1 ratio), which is separated from a second compartment (102), containing monocytes, by a semi-permeable membrane (103) composed of tissue-culture treated polyethylene terephthalate with a 0.4 μm pore size.\n(§4) Each of UR-13870, Acumapimod and Ralimetinib are administered to the co-culture following a procedure analogous to that described in Example 2 above (at the concentrations as shown in Table 2 above).\n(§5) The co-culture is incubated at 37° C., 5% CO2 and a suitably humid environment for 24 hours. On completion, the transwell insert is removed and supernatant is isolated. Cells and debris are removed from the supernatant by exposing the container to a centripetal force of 400 G and gently pipetting the supernatant into a new container without disturbing the cell pellet at the bottom of the previous container.\n(§6) Prior to adding the p38 inhibitors and sCART-mono, endothelial cells are incubated overnight at 37° C. and 5% CO2 in a suitably humid environment to allow the cells to adhere fully to the tissue culture dish.\nSupernatant levels of IL-6 and IL-8 are determined following 24 hr treatment with sCART-mono and the p38 MAPK inhibitors by ELISA."}, "CAR T cells": {"system": "CAR T cells", "experiment": "T cell exhaustion markers TIM3 and LAG3 on CAR T cells in co-culture (flow cytometry)", "conditions": "CAR T:tumour cell co-culture, concentrations of Table 2", "procedure": "(§7) UR-13870, Ralimetinib or Acumapimod are each added to a culture of CD19+ cancer cells (using a micropipette to transfer the correct volume to achieve the desired final concentration in Table 2).\n(§8) CAR T cells are then added to the same culture 5-10 minutes later. In brief, CAR T cell concentrations per ml are determined and used to aliquot the desired number of CAR T cells into the culture to achieve the described 1:1 CAR T to cancer cell ratio.\n(§9) The co-culture containing CAR T cells and tumour cells is swirled gently to ensure homogenous dispersion of cells throughout the vessel. The resultant co-culture is incubated for 24 to 96 hours in a closed incubator at 37° C. with 5% CO2 and a suitably humid atmosphere.\nBoth T cell surface markers T cell immunoglobulin and mucin domain-containing protein 3 (TIM3/CD366) and Lymphocyte Activation Gene 3 (LAG3/CD223) are associated with T cell exhaustion and disease progression during immunotherapy treatment. Advantageously, all of UR-13870, Ralimetinib and Acumapimod reduce both the number of TIM3+ CAR T cells, and the number of LAG3+ CAR T cells. […] For LAG3+, the results for Ralimetinib at a 5 μM concentration appear to have been affected by experimental failure, and these may be disregarded accordingly."}, "HUVEC endothelial cells [3]": {"system": "HUVEC endothelial cells", "experiment": "IL-6 and IL-8 ELISA of HUVEC endothelial cells treated with sCAR", "conditions": "sCAR stimulation, 24 hours; concentrations of Table 2", "procedure": "as §1, §2\nSupernatant levels of IL-6 and IL-8 from the HUVEC endothelial cell monoculture with sCAR (or smCAR) are determined by ELISA."}, "THP-1 monocytes": {"system": "THP-1 monocytes", "experiment": "IL-6 ELISA of THP-1 monocytes treated with sCAR", "conditions": "sCAR stimulation, 24 hours; concentrations of Table 2", "procedure": "In Example 3 below, sCAR (or smCAR) is added using a micropipette to an in vitro culture of monocyte cells of the human monocytic cell line THP-1, available from the American Type Culture Collection. The culture is incubated in a closed incubator at 37° C. with 5% CO2 and a suitably humid atmosphere for approximately 24 hours, following which cytokine release is observed. p38 MAPK activation and cytokine release are confirmed by evaluation of the presence of IL-6 in THP-1 cells using an enzyme-linked immunosorbent assay (ELISA; for which a kit is suitably obtainable from Thermo Fisher Scientific of Kingfisher Dr, Swindon SN3 5BZ, UK).\n(i) Monocytes sCAR (or smCAR), produced as described in Example 1 above, is added to a monoculture of THP-1 monocytes in the presence of UR-13870, Ralimetinib or Acumapimod at each of the concentrations shown in Table 2 above at 37° C., 5% CO2 and a suitably humid environment for 24 hours.\nSupernatant levels of IL-6 from the THP-1 monocyte monoculture with sCAR (or smCAR) are determined by ELISA."}, "HUVEC endothelial cells [4]": {"system": "HUVEC endothelial cells", "experiment": "QPCR of ICAM1 in HUVEC cells treated with sCART-mono supernatant", "conditions": "24 hours", "procedure": "as §3, §4, §5, §6\nReduced endothelial cell activation is evidenced by reduced ICAM1 expression in response to treatment with UR-13870, Acumapimod and Ralimetinib."}, "CD19+ cancer cells": {"system": "CD19+ cancer cells", "experiment": "CAR T cell killing of tumour cells in 24-hour co-culture (flow cytometry)", "conditions": "high dose only, CAR T to cancer cell ratio 1:1", "from_the_text": "Raji immortalized human B cell line CD19-expressing cancer cells (available from the American Type Culture Collection) are acquired and stable transfection of the Raji cell line is generated with an mCherry reporter protein to facilitate identification of the cancer cells within co-cultures by detection of the mCherry protein fluorescence by flow cytometry.\nas §7, §8, §9\nTumour cell death is observed by examining relative CAR T cell:tumour cell numbers by flow cytometry following 24 hour co-culture, as shown in FIG. 7."}},
  "data": [
    {"smiles": "OCCCn1cc2c(-c3ccc(F)cc3)c(-c3ccncc3)c(-c3ccc(F)cc3)nc2n1", "note": "[UR-13870, 6-bis(4-fluorophenyl)-5-(4-pyridinyl)-2Hpyrazolo[3,4-b]pyridine-2-propanol]", "values": [
      {"measurement": "ICAM1 mRNA levels", "setting": "HUVEC endothelial cells [1]", "value": "significantly reduce"},
      {"measurement": "IL-6 mRNA levels", "setting": "HUVEC endothelial cells [1]", "value": "significantly reduce"},
      {"measurement": "VCAM1 mRNA levels", "setting": "HUVEC endothelial cells [1]", "value": "reduced, albeit non-significantly"},
      {"measurement": "IL-6 levels in supernatant", "setting": "HUVEC endothelial cells [2]", "value": "reduced"},
      {"measurement": "IL-8 levels in supernatant", "setting": "HUVEC endothelial cells [2]", "value": "(albeit non-significant) downward trend"},
      {"measurement": "number of TIM3+ CAR T cells", "setting": "CAR T cells", "value": "reduce"},
      {"measurement": "number of LAG3+ CAR T cells", "setting": "CAR T cells; Ralimetinib 5 μM results to be disregarded", "value": "reduce"},
      {"measurement": "IL-6 secretion by HUVEC cells", "setting": "HUVEC endothelial cells [3]", "value": "significantly reduce"},
      {"measurement": "IL-8 supernatant level, HUVEC cells", "setting": "HUVEC endothelial cells [3]", "value": "reduced"},
      {"measurement": "IL-6 secretion by THP-1 monocytes", "setting": "THP-1 monocytes", "value": "significantly reduce"},
      {"measurement": "ICAM1 expression (endothelial cell activation)", "setting": "HUVEC endothelial cells [4]", "value": "reduced"},
      {"measurement": "CAR T cell-induced cancer cell death (percentage of residual tumour cells in the co-culture)", "setting": "CD19+ cancer cells", "value": "maintain CAR T cell-induced cancer cell death"}
    ]}
  ]
}
